From patent US20210369677A1, “SMALL MOLECULE ACTIVATORS OF POLYCYSTIN-2 (PKD2) AND USES THEREOF” (Northwestern University, priority 2020, published 2021)

Target: T1, polycystin-2 (Homo sapiens, UniProt Q13563)
T1 construct: expressed in transfected cells
T1 sequence (Q13563 1-968): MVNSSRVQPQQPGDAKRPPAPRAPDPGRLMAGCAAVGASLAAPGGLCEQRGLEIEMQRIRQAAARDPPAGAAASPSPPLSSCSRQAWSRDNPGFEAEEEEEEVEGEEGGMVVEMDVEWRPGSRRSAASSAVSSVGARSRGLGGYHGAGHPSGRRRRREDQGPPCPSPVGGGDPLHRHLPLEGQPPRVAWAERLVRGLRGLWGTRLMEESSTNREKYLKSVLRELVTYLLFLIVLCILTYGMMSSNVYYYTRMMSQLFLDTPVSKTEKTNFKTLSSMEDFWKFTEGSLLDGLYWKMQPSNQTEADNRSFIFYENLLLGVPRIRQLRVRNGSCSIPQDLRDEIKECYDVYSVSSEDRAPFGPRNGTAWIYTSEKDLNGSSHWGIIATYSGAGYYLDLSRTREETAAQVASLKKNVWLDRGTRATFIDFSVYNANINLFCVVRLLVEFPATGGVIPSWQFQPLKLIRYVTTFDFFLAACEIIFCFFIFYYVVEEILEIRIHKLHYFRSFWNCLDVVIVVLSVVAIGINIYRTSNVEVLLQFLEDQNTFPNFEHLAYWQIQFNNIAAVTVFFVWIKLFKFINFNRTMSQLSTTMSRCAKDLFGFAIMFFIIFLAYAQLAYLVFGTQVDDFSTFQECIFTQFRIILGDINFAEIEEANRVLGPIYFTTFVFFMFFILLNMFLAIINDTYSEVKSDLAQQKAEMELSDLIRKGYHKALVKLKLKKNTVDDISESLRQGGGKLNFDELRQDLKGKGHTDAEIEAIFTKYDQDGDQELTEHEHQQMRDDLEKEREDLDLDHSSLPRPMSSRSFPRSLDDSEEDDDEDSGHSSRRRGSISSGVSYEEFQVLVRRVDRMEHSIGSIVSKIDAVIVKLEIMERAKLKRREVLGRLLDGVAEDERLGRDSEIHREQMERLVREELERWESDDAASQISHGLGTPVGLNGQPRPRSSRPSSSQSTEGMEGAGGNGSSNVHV
Experiment: Inside-out cilia patch of HEK cells, voltage dependent channel opening at low and high intraciliary Ca2+
Format: cell-based
Settings: from low (100 nM) to high (100 μM) Ca2+, WT channels
Description: To test whether calcium occupancy of the EF hand is responsible for CDM and CDD of human polycystin-2, we generated double alanine mutations at the −X ([…]) and −Z vertices (E774A) which abolished Ca^2+ affinity for the CTD fragment (FIG. 17B). We then expressed the −X-Z double mutation in PKD2-GFP in a PKD2^null HEK cell line, so that exogenous channels could be assayed without the contribution of endogenous PKD2 alleles, as previously described (Vien et al., 2020). The stably expressed human WT and −X-Z channels trafficked to the primary cilia, and glass electrodes with submicron apertures were fabricated to form high resistance electrical seals with the GFP-illuminated cilia membranes (FIG. 18A). […] These experiments were performed with only one channel present in the membrane, so that stochastic effects on single channel states could be determined. […]
Electrophysiology. The electrophysiologist was blinded by a third party in the laboratory, where test groups were assigned a letter to conceal the genetic identity of the cells being evaluated. […] Ciliary ion currents were recorded using borosilicate glass electrodes polished to resistances of 14-23 MΩ using the cilium patch method previously described (Vien et al., 2020). Single channel currents measured in the inside-out configuration were recorded in symmetrical sodium concentrations. […]

SMILES: [Ca+2] [Ca^2+, calcium]
- Shift in the voltage-dependence of half maximal open probability (V1/2): −47 mV
